According to ChEMBL document CHEMBL1132892, “Cyclic thioether peptide mimetics as VCAM-VLA-4 antagonists” (Bioorg Med Chem Lett, 2000):

Tests used:
Integrin alpha-4 [1] = biological target: T1, Integrin alpha-4 (Homo sapiens, UniProt P13612); test: Compound was evaluated for VCAM-VLA-4 antagonistic activity using solid phase assay; assay type: functional
T1 sequence (P13612 whole entry): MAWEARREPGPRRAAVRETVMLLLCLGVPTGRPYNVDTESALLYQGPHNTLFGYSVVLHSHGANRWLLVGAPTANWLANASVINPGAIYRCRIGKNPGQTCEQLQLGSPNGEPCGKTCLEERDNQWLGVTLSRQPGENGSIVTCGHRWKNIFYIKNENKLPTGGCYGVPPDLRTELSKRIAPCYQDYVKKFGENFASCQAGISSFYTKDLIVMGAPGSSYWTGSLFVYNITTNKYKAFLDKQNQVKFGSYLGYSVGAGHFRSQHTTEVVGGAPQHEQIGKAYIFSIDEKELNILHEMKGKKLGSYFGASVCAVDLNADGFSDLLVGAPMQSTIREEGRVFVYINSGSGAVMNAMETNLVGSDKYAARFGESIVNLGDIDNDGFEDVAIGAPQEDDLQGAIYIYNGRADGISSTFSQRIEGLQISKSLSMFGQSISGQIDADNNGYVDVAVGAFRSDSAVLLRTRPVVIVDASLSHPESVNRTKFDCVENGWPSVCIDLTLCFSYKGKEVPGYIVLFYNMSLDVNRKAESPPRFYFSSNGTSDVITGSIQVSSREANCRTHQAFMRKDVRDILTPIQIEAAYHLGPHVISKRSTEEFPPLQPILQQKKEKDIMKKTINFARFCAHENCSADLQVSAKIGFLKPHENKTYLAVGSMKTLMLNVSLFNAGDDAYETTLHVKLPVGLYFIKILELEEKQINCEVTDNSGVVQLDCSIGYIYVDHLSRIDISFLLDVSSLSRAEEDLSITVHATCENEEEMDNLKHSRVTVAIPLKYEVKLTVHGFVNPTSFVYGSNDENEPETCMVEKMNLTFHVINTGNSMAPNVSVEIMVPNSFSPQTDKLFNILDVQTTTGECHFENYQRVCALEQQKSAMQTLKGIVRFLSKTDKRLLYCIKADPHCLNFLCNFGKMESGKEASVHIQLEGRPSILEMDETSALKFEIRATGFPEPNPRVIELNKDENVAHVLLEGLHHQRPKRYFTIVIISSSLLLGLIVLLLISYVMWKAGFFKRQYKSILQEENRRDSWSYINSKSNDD

Integrin alpha-4 [2] = biological target: T1, Integrin alpha-4; test: Compound was evaluated for VCAM-VLA-4 antagonistic activity using Ramos cell assay; assay type: functional, cell-based

SMILES | IC50 (Integrin alpha-4 [1]) | IC50 (Integrin alpha-4 [2])
CC(=O)N1CCC(c2ccc(O)cc2)C1C(=O)N[C@H]1CCSCC[C@@H](C(=O)O)NC(=O)C2(CCCC2)CCNC1=O (some centres not stated) | 35 nM | 
CC(=O)N1CCC(c2ccc(O)cc2)C1C(=O)N[C@H]1CSCC[C@@H](C(=O)O)NC(=O)C2(CCCC2)CCNC1=O (some centres not stated) | 0.5 nM | 20 nM
CC(=O)N1CCC(c2ccc(O)cc2)C1C(=O)N[C@H]1CSSC[C@@H](C(=O)O)NC(=O)C2(CCCC2)CCNC1=O (some centres not stated) | 0.1 nM | 1.5 nM
CC(=O)N1CCC(c2ccc(O)cc2)C1C(=O)N[C@H]1CCSC[C@@H](C(=O)O)NC(=O)C2(CCCC2)CCNC1=O (some centres not stated) | 2.7 nM | 220 nM
